Experimental data as given in patent publication US9801973B1, “Peptide having zirconia-binding capacity” (SEOUL NATIONAL UNIVERSITY R&DB FOUNDATION, priority 2015, dated 2017).

How the values were obtained:
[1] = binding assay using an avidin-biotin complex (binding affinity of zirconia-binding peptide); conditions: biotin-labeled peptide, 100 nM to 1 μM, room temperature 15 hours
Description: (§1) In order to examine the binding affinities of the peptides synthesized in Example 1 and Comparative Examples 1 and 2, the peptides were labeled with biotin. Each of the synthesized peptide domains was biotinylated using EZ-Link Sulfo-NHS-Biotin (Pierce Biotechnology, USA) according to the manufacturer's instruction, and unbound byproducts were removed by ultrafiltration that is a membrane separation method based on a pressure difference. The molecular weights of the synthesized products were measured by mass spectrometry. The synthesized products were analyzed and purified by reverse phase liquid chromatography. For analysis, a C18 column having a diameter of 4.6 mm was used, and 0.1% TFA/H2O and 0.092% TFA/acetonitrile were flushed onto the column at a rate of 1 ml/min with a gradient of 0-60% for 30 minutes. The wavelength of the UV detector used was 220 nm. For purification, a column having a diameter of 2.2 cm was used, and a flow rate of 20 ml/min and the solvent and detection wavelength as described above were used. Only the biotin-labeled peptide fraction was collected, and concentrated using a rotary evaporator to remove the solvent, followed by freeze-drying.
To measure the binding affinity of the zirconia-binding peptide, a binding assay using an avidin-biotin complex was performed. Specifically, one zirconia disc was placed in each well of a 12-well polystyrene plate, and then blocked with a blocking buffer (0.1 M NaHCO3 (pH 8.6), 5 mg/ml BSA, 0.02% NaN3 (optional), filter sterilize) for at least one hour. Next, the blocking buffer was discarded, and each zirconia disc was strongly washed six times or more with a washing buffer (TBS+0.1% [v/v] Tween-20), after which 200 μl of each of the zirconia-binding peptide Zr-BP (SEQ ID NO: 1) of Example 1 and the peptides Zr-BPC (SEQ ID NO: 2), PL1 (SEQ ID NO: 3) and PL2 (SEQ ID NO: 4) of Comparative Examples 1 and 2, which were biotin-labeled, synthesized, separated and purified in Example 3-1, was dispensed to the surface of each zirconia disc at a concentration ranging from 100 nM to 1 μM. Each zirconia disc was incubated at room temperature for 15 hours, and then washed strongly with a washing buffer, and 200 μl of a 1:500 dilution of ExtrAvidin-peroxidase (Cat. #E2886, Sigma-Aldrich, USA) in a blocking buffer was dispensed to the surface of each zirconia disc. Each zirconia disc was incubated at room temperature for 1 hour, and then washed strongly with a washing buffer, after which 200 μl of a substrate solution (2,2′-AZINO-BIS, Cat. #A3219, Sigma-Aldrich, USA) was dispensed to the surface of each zirconia disc and allowed to react at room temperature for 20 minutes so as to develop color. Each zirconia disc was treated with 200 μl of 1% SDS solution to stop the reaction, and the absorbance at 405 nm was measured.

[2] = binding assay using an avidin-biotin complex (maximum binding amount per zirconia disc)
Description: as §1
To examine the maximum binding amount of the zirconia-binding peptide Zr-BP (SEQ ID NO: 1) per unit area of the zirconia disc surface, a binding assay using a avidin-biotin complex was performed. Specifically, one zirconia disc was placed in each well of a 12-well polystyrene plate, and then blocked with a blocking buffer (0.1 M NaHCO3 (pH 8.6), 5 mg/ml BSA, 0.02% NaN3 (optional), filter sterilize) for at least one hour. […] Each zirconia disc was treated with 200 μl of 1% SDS solution to stop the reaction, and the absorbance at 405 nm was measured.

IGNSFSFPAVYR (PL1)
absorbance value at 405 nm (binding to the zirconia disc surface) ([1]; FIG. 2): do not bind to the zirconia disc surface

VSAAGTKASPAV (Zr-BPC)
absorbance value at 405 nm (binding to the zirconia disc surface) ([1]; FIG. 1): binding affinity thereof is reduced

VSPFGTKWSPFV (Zr-BP)
absorbance value at 405 nm (binding to the zirconia disc surface) ([1]; FIG. 1): higher than that of the peptide Zr-BPC of Comparative Example 1
absorbance value at 405 nm (binding to the zirconia disc surface) ([1]; FIG. 2): higher than those of the peptides (PL1 and PL2) of Comparative Example 2
maximum amount of zirconia-binding peptide bound to the surface of one zirconia disc ([2]; back-calculation from molecular weight and dispensing amount, disc diameter 15.5 mm): 622.8 µg
concentration showing the maximum absorbance value ([2]; biotin-labeled peptide, 100 nM to 40 mM, 200 μl per disc, room temperature 15 hours, FIG. 3): 2 mM
zirconia-binding peptide fixed per mm^2 of the zirconia disc surface ([2]; per mm^2, disc diameter 15.5 mm): about 3.3 μg

LRLDVDRAISLL (PL2)
absorbance value at 405 nm (binding to the zirconia disc surface) ([1]; FIG. 2): do not bind to the zirconia disc surface
